Where two headings read alike, the source gives them in different places.
Settings: initial 0.220 %
Method: The samples were tested for stability after having been stored at 25° C. for three months.

- Sorbic Acid Concentration (%) After 3 months storage at 25 C. (pH = 5.5): 0.13%
- Sorbic Acid Concentration (%) After 3 months storage at 25 C. (pH = 6.0): 0.21%
- Sorbic Acid Concentration (%) After 3 months storage at 25 C. (pH = 6.5): 0.21%
SMILES: C/C=C/C=C/C(=O)O [Sorbic Acid, sorbic acid]
